# Assay results taken from PubChem BioAssay (NCI).
# Where “and” joins values, the source holds several entries; their conditions need not be identical. Equal entries are not always repeated.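 A five-concentration, 48-hour dose response in 96-well plates underlies each endpoint, interpolated linearly between surrounding concentrations. The concentration for 50% growth inhibition is given as GI50. TGI denotes the concentration required for complete inhibition of growth.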
# How the values were obtained:
# Assay in all cases: growth of human tumour cells (NCI), 48 h
# BT-549 breast = test system: BT-549 breast
# UACC-62 melanoma = test system: UACC-62 melanoma
# UACC-257 melanoma = test system: UACC-257 melanoma
# RXF 393 renal = test system: RXF 393 renal
# MDA-MB-231 breast = test system: MDA-MB-231 breast
# SK-MEL-5 melanoma = test system: SK-MEL-5 melanoma
# SR leukemia = test system: SR leukemia
# COLO 205 colon = test system: COLO 205 colon
# HT29 colon = test system: HT29 colon
# NCI-H23 lung = test system: NCI-H23 lung
SMILES,TGI (BT-549 breast),TGI (UACC-62 melanoma),GI50 (UACC-257 melanoma),TGI (UACC-257 melanoma),GI50 (RXF 393 renal),TGI (RXF 393 renal),TGI (MDA-MB-231 breast),GI50 (SK-MEL-5 melanoma),TGI (SK-MEL-5 melanoma),TGI (SR leukemia),TGI (COLO 205 colon),GI50 (HT29 colon),TGI (HT29 colon),GI50 (NCI-H23 lung),TGI (NCI-H23 lung),GI50 (BT-549 breast),GI50 (UACC-62 melanoma),GI50 (MDA-MB-231 breast),GI50 (SR leukemia),GI50 (COLO 205 colon)
COC12C(COC(=O)NCCO)C3=C(C(=O)C(C)=C(N)C3=O)N1CC1NC12 (stereo not drawn),171 µM,49.9 µM,79.1 µM,238 µM,141 µM,> 264 µM,> 264 µM,23.9 µM,45 µM and 58.2 µM,> 264 µM,85.8 µM,52.7 µM,> 264 µM,10.3 µM,22.7 µM and 51.3 µM,,,,,
COCCOC1=C(Cl)C(=O)c2ccccc2C1=O,10.6 µM,5.1 µM,2 µM,4.36 µM,3.31 µM,10.2 µM,11.7 µM,1.82 µM,3.51 µM,9.48 µM,12.2 µM,7.06 µM,25.5 µM,3.24 µM,13.5 µM,3.2 µM,1.89 µM,2.81 µM,3.17 µM,3.63 µM
Cc1cnc(C(=O)NNc2nc3sc4c(c3c(=O)[nH]2)C(C)CCC4)cn1 (stereo not drawn),> 100 µM,6.93 µM,2.61 µM,11.3 µM,1.76 µM,8.2 µM,18.1 µM,1.04 µM,3.36 µM,29.2 µM,13.4 µM,1.61 µM,> 100 µM,2.25 µM,43 µM,2.08 µM,0.528 µM,1.85 µM,0.484 µM,2.03 µM
[O]=[V]([OH])([OH])[OH],> 100 µM,> 100 µM,> 100 µM,> 100 µM,> 100 µM,> 100 µM,> 100 µM,> 100 µM,> 100 µM,> 100 µM,> 100 µM,> 100 µM,> 100 µM,> 100 µM,> 100 µM,> 100 µM,> 100 µM,> 100 µM,36.3 µM,> 100 µM
CCSCC1CC(O)(c2ccccc2)C(c2ccccc2)C(c2ccc(F)cc2)O1 (stereo not drawn),7.72 µM,5.5 µM,2.1 µM,4.88 µM,1.87 µM,3.57 µM,8.3 µM,1.47 µM,2.82 µM,5.85 µM,3.84 µM,1.95 µM,6.21 µM,2.01 µM,4.87 µM,2.31 µM,1.91 µM,2.58 µM,1.98 µM,1.81 µM
CCN(CC)c1ccc2nc3ccc(=[N+](CC)CC)cc-3oc2c1,21 µM,4.33 µM,0.0457 µM,0.654 µM,1.63 µM,9.84 µM,2.96 µM,0.162 µM,1.17 µM,> 44.3 µM,0.86 µM,0.182 µM,2.67 µM,0.097 µM,1.27 µM,2.32 µM,0.756 µM,0.0667 µM,0.424 µM,0.0222 µM
Cc1ccc(NC(=O)c2cc(S(=O)(=O)Nc3nnc(-c4ccccc4)c(-c4ccccc4)n3)c(SCc3ccccc3)cc2Cl)cc1,45.9 µM,31.2 µM,20.7 µM,41.7 µM,25.6 µM,47.2 µM,42.2 µM,19.2 µM,37.6 µM,> 100 µM,55.6 µM,,,18.1 µM,34.2 µM,19.8 µM,16.3 µM,19.4 µM,36 µM,25 µM
CC(=O)NC1C(O[C@H]2C[C@H]3[C@@H]4CC=C5C[C@@H](O)CC[C@]5(C)[C@H]4CC[C@]3(C)[C@H]2[C@H](C)C(=O)CCC(C)C)OCC(O)C1O (stereo partly drawn),6.96 µM,2.21 µM,1.4 µM,3.55 µM,0.398 µM,1.41 µM,12.4 µM,1.85 µM,6.49 µM,22.8 µM,8.75 µM,5.29 µM,15.3 µM,4.59 µM,18.5 µM,0.776 µM,0.913 µM,3.29 µM,1.56 µM,2.13 µM
CCCCS(=O)c1sc2nc(-c3cccs3)cc(-c3ccccc3)c2c1N (stereo not drawn),67.9 µM,,25.1 µM,90.5 µM,10.6 µM,58 µM,> 100 µM,13.3 µM,28.3 µM,> 68 µM,56.6 µM,20.6 µM,> 100 µM,19 µM,> 100 µM,9.24 µM,,18.2 µM,6.46 µM,16.9 µM
CC(C)[C@@H]1CC[C@]2(CO2)[C@@H]2C(=O)OCC(C(=O)O)=C[C@H]21,0.851 µM,0.578 µM,,,0.3 µM,1.37 µM,> 75.6 µM,0.348 µM,1.51 µM,4.24 µM,> 57.7 µM,0.352 µM,> 33.9 µM,1.35 µM,8.41 µM,0.286 µM,0.221 µM,0.363 µM,0.552 µM,0.657 µM
OCCCCC#Cc1ccccc1C#Cc1cccc(C(F)(F)F)c1,30.7 µM,29.5 µM,16.7 µM,31.8 µM,,,33.4 µM,17.8 µM,32.7 µM,> 100 µM,36.3 µM,10.5 µM,23.4 µM,16.4 µM,31.5 µM,16.4 µM,15.9 µM,18.3 µM,18.3 µM,19.2 µM
CSc1nc2nc(-c3ccccc3)c(C)c-2c2n1C(C)C(=O)N2 (stereo not drawn),> 100 µM,45.2 µM,51.3 µM,> 100 µM,30.6 µM,> 100 µM,> 100 µM,16.9 µM,35.5 µM,> 100 µM,> 100 µM,33.7 µM,> 100 µM,,,50.3 µM,18.6 µM,83.4 µM,39.3 µM,41.4 µM
CNCc1ccc(-c2cc(-c3nc(-c4ccc(S(=O)(=O)C(C)C)cc4)cnc3N)on2)cc1,30.4 µM,26.6 µM,3.05 µM,9.35 µM,,,19.6 µM,2.59 µM,12.3 µM,2.84 µM,24.1 µM,0.492 µM,1.83 µM,0.676 µM,28.3 µM,2.04 µM,4.77 µM,3.8 µM,0.132 µM,10.8 µM
